Source: patent US9497975B2, “Broad spectrum natural preservative composition” (The Trustees of Columbia University in the City of New York, priority 2011, dated 2016)

Experiments:
[1] = tested on: A. niger; assay: Efficacy of BA, THC and essential oils in anionic emulsion against A. niger, Example 2; type: cell-based, Aspergillus niger; settings: essential oil 0.3% w/w alone or with BA 0.5% w/w and THC 0.05% w/w, incubation 48 hours, average of nine samples
Method: 0.9 gm aliquots of preservative containing emulsions were dispensed into several culture tubes. These were divided into various groups and inoculated with 0.1 ml of the test organism (bacteria, Candida albicans (10^8 cfu/ml) or Aspergillus niger (10^7 cfu/ml). After mixing, the tubes were incubated for 48 hours for bacteria t days for either C. albicans or A. niger. The cultures were then diluted serially with Drug Neutralizing Fluid (DNF) and 0.5 ml aliquots were plated on TSA and incubated for 24-48 hours (bacteria and C. albicans were incubated at 37° C. and A. niger at 30° C.). In the control group, the emulsion base without the preservatives was inoculated with each organism and processed similarly.
Various essential oils were used along with BA and THC and incorporated in anionic emulsion and tested against A. niger.

[2] = tested on: P. aeruginosa; assay: Antimicrobial activity of test formulations in cationic or anionic emulsion, Example 3; type: cell-based, Pseudomonas aeruginosa; settings: incubated 48 hours
Method: (§1) A stock solution was prepared containing the active ingredients and was then diluted in either a cationic or anionic test formulation, where the cationic formulation tested was Formulation A described in Example 1 and the anionic formulation tested was Formulation B described in Example 1: […]
(§2) Test formulations comprising the synthetic preservative methylparaben, at a concentration of 0.3% w/w, was used as a positive control.
(§3) The following method of testing for antimicrobial activity was used. 25 gms of emulsion containing 1-1.2% of various preservative was prepared. 0.9 gm aliquots of preservative containing emulsions were dispensed into several culture tubes. These were divided into various groups and inoculated with 0.1 ml of the test organism (bacteria, Candida albicans (10^8 cfu/ml) or Aspergillus niger (10^7 cfu/ml)). After mixing, the tubes were incubated for 48 hours for bacteria and for 7 days days for either C. albicans or A. niger. The cultures were then diluted serially with Drug Neutralizing Fluid (DNF) and 0.5 ml aliquots were plated on TSA and incubated for 24-48 hours (bacteria and C. albicans were incubated at 37° C. and A. niger at 30° C.). […] The log 10 reduction in colony counts of the test group from the colony counts of control group was determined.

[3] = tested on: S. aureus; assay: as above; type: cell-based, Staphylococcus aureus; settings: incubated 48 hours
Method: as §1, §2, §3

[4] = tested on: Aspergillus niger; assay: as above; type: cell-based; settings: incubated 7 days
Method: as §1, §2
(§4) The following method of testing for antimicrobial activity was used. 25 gms of emulsion containing 1-1.2% of various preservative was prepared. 0.9 gm aliquots of preservative containing emulsions were dispensed into several culture tubes. These were divided into various groups and inoculated with 0.1 ml of the test organism (bacteria, Candida albicans (10^8 cfu/ml) or Aspergillus niger (10^7 cfu/ml)). After mixing, the tubes were incubated for 48 hours for bacteria and for 7 days days for either C. albicans or A. niger. The cultures were then diluted serially with Drug Neutralizing Fluid (DNF) and 0.5 ml aliquots were plated on TSA and incubated for 24-48 hours (bacteria and C. albicans were incubated at 37° C. and A. niger at 30° C.). In the control group, the emulsion base without the preservatives was inoculated with each organism and processed similarly. The log 10 reduction in colony counts of the test group from the colony counts of control group was determined.

[5] = tested on: Candida albicans; assay: as above; type: cell-based; settings: incubated 7 days
Method: as §1, §2, §4

[6] = anionic emulsion (Formulation B)
[7] = cationic emulsion (Formulation A)

SMILES | log10 reduction in cfu, A. niger [1] | log reduction from control growth, P. aeruginosa [2, 6] | log reduction from control growth, P. aeruginosa [2, 7] | log reduction from control growth, S. aureus [3, 6] | log reduction from control growth, S. aureus [3, 7] | log reduction from control growth, A. niger [4, 6] | log reduction from control growth, A. niger [4, 7] | log reduction from control growth, C. albicans [5, 6] | log reduction from control growth, C. albicans [5, 7]
Cc1ccc(C(C)C)c(O)c1 [TH, Thymol] | 0.8 log10 |  |  |  |  |  |  |  | 
COC(=O)c1ccc(O)cc1 [methyl paraben, methylparaben] |  | 0.11 log10 | 2.1 log10 | 0.12 log10 | 1.9 log10 | 2.88 log10 | 4.16 log10 | 4.31 log10 | 4.25 log10
